Measured values reported in publication PMC8617031, “Development of a BCL-xL and BCL-2 dual degrader with improved anti-leukemic activity,” (Nature Communications, 2021).
Values joined by “and” are separate entries in the source; they are usually repeats but may differ in a detail not shown here. Identical values can stand only once. Like-named read-outs stand apart in the source and are kept apart here.

What was measured:
[1] = target: T1, His-tagged BCL-xL (Homo sapiens, UniProt Q07817); assay: AlphaScreen competitive binary binding, BCL-xL (biotin-BAD peptide)
T1 construct: purchased Sigma-Aldrich SRP0187
Description: The reagents were diluted in a buffer containing 250 mM HEPES pH 7.5, 1 M NaCl, 1% BSA, and 0.05% Tween-80. His-tagged BCL-xL (0.5 nM, Cat. No. SRP0187, Sigma-Aldrich) or BCL-2 (1 nM, Cat. No. SRP0186, Sigma-Aldrich) were incubated with serial diluted 753a or 753b and 2 nM biotin-tagged BAD (biotin-[…] amino-terminal, AnaSpec, for BCL-xL) or 10 nM BIM peptides (biotin-[…] N-terminal, AnaSpec, for BCL-2) to a final volume of 40 µl in a 96-well PCR plate. […] After incubation for 2 h, 5 µl 6× His-acceptor beads (Cat. No. AL128M, PerkinElmer) were added to each well at 20 µg/ml final concentration and incubated for 1 h. Then 5 µl streptavidin-donor beads were added (Cat. No. 6760002, PerkinElmer) to each well at 20 µg/ml final concentration and incubated for 45 min. At the end of the incubation period, 17 µl of each sample was transferred in adjacent wells of 384-well proxy plate (Cat. No. 6008280, PerkinElmer). The plate was scanned using the Alpha program on Biotek’s Synergy Neo2 multimode plate reader. The inhibition constant (Ki) was calculated using the non-linear regression, one site, competitive binding, Fit Ki function on GraphPad Prism 9 software, based on experimentally determined dissociation constant (Kd) for each protein–peptide pair.

[2] = system: Kasumi-1 cells; assay: Viability (MTS) of Kasumi-1 AML cells; type: cell-based, human; conditions: Fig. 7c; for Luminescence (raw plate reading): Kasumi, 24h
[3] = target: T2, BCL-xL (Homo sapiens, UniProt Q07817); assay: BCL-xL degradation by immunoblot in 293T cells; type: cell-based
T2 construct: endogenous in cells
Procedure, shortened: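 DC50 and Dmax come from densitometry of western blots of treated 293T cells, normalized to β-actin, mean of 3 independent experiments. Lysates in RIPA, 20–40 μg loaded per lane, HRP chemiluminescence read-out.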

T1 sequence (Q07817 whole entry): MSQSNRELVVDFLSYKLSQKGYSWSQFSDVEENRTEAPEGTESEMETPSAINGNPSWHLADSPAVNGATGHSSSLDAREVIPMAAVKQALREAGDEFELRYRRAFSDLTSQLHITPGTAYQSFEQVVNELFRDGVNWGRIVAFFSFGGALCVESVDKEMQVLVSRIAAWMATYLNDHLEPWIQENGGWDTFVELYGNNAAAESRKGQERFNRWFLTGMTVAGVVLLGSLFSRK
T2 sequence (Q07817 whole entry): as above

IC50 ([1]; BCL-xL Rep-1): 120 nM
Ki ([1]; BCL-xL Rep-1): 5.4 nM
Alpha signal normalised to Maximum/Minimum (inhibition) ([1]; BCL-xL Rep-1, 0.000305176 uM, 0.000305176 µM): 20.1617
inhibition at 0.000305176 µM ([1]; BCL-xL Rep-1, 0.000305176 uM, read-out: Alpha signal normalised to Maximum/Minimum (inhibition)): 18.1%
Alpha signal normalised to Maximum/Minimum (inhibition) ([1]; BCL-xL Rep-1, 0.0012207 uM, 0.0012207 µM): 17.8409
inhibition at 0.0012207 µM ([1]; BCL-xL Rep-1, 0.0012207 uM, read-out: Alpha signal normalised to Maximum/Minimum (inhibition)): 21.3%
Alpha signal normalised to Maximum/Minimum (inhibition) ([1]; BCL-xL Rep-1, 0.00488281 uM, 0.00488281 µM): 23.949
inhibition at 0.00488281 µM ([1]; BCL-xL Rep-1, 0.00488281 uM, read-out: Alpha signal normalised to Maximum/Minimum (inhibition)): 23.9%
Alpha signal normalised to Maximum/Minimum (inhibition) ([1]; BCL-xL Rep-1, 0.0195312 uM, 0.0195312 µM): 38.2381
inhibition at 0.0195312 µM ([1]; BCL-xL Rep-1, 0.0195312 uM, read-out: Alpha signal normalised to Maximum/Minimum (inhibition)): 39%
Alpha signal normalised to Maximum/Minimum (inhibition) ([1]; BCL-xL Rep-1, 0.078125 uM, 0.078125 µM): 43.5761
inhibition at 0.078125 µM ([1]; BCL-xL Rep-1, 0.078125 uM, read-out: Alpha signal normalised to Maximum/Minimum (inhibition)): 42.3%
Alpha signal normalised to Maximum/Minimum (inhibition) ([1]; BCL-xL Rep-1, 0.3125 uM, 0.3125 µM): 88.5079
inhibition at 0.3125 µM ([1]; BCL-xL Rep-1, 0.3125 uM, read-out: Alpha signal normalised to Maximum/Minimum (inhibition)): 85.7%
Alpha signal normalised to Maximum/Minimum (inhibition) ([1]; BCL-xL Rep-1, 1.25 uM, 1.25 µM): 97.7177
inhibition at 1.25 µM ([1]; BCL-xL Rep-1, 1.25 uM, read-out: Alpha signal normalised to Maximum/Minimum (inhibition)): 96.9%
Alpha signal normalised to Maximum/Minimum (inhibition) ([1]; BCL-xL Rep-1, 5 uM, 5 µM): 99.5511
inhibition at 5 µM ([1]; BCL-xL Rep-1, 5 uM, read-out: Alpha signal normalised to Maximum/Minimum (inhibition)): 99.5%
Alpha signal (raw counts) ([1]; BCL-xL Rep-1, plate row B, 5 uM): 27230 and 26015
Alpha signal (raw counts) ([1]; BCL-xL Rep-1, plate row C, 1.25 uM): 64394 and 52279
Alpha signal (raw counts) ([1]; BCL-xL Rep-1, plate row D, 0.3125 uM): 224421 and 184214
Alpha signal (raw counts) ([1]; BCL-xL Rep-1, plate row E, 0.078125 uM): 846185 and 827887
Alpha signal (raw counts) ([1]; BCL-xL Rep-1, plate row F, 0.0195312 uM): 894074 and 904357
Alpha signal (raw counts) ([1]; BCL-xL Rep-1, plate row G, 0.00488281 uM): 1110366 and 1109056
Alpha signal (raw counts) ([1]; BCL-xL Rep-1, plate row H, 0.0012207 uM): 1147150 and 1196559
Alpha signal (raw counts) ([1]; BCL-xL Rep-1, plate row I, 0.000305176 uM): 1192890 and 1163311
Alpha signal (raw counts) ([1]; BCL-xL Rep-1, plate row J, 7.62939e-5 uM): 1153277 and 1055277
Alpha signal (raw counts) ([1]; BCL-xL Rep-1, plate row K, 1.90735e-5 uM): 1140776 and 1328684
Alpha signal (raw counts) ([1]; BCL-xL Rep-2, 7.62939e-5 uM): 1377571 and 1338961
Alpha signal normalised to Maximum/Minimum (inhibition) ([1]; BCL-xL Rep-2, 0.0012207 uM, 0.0012207 µM): 12.2985
inhibition at 0.0012207 µM ([1]; BCL-xL Rep-2, 0.0012207 uM, read-out: Alpha signal normalised to Maximum/Minimum (inhibition)): 16.2%
Alpha signal normalised to Maximum/Minimum (inhibition) ([1]; BCL-xL Rep-2, 0.00488281 uM, 0.00488281 µM): 25.1578
inhibition at 0.00488281 µM ([1]; BCL-xL Rep-2, 0.00488281 uM, read-out: Alpha signal normalised to Maximum/Minimum (inhibition)): 22.8%
Alpha signal normalised to Maximum/Minimum (inhibition) ([1]; BCL-xL Rep-2, 0.0195312 uM, 0.0195312 µM): 25.456
inhibition at 0.0195312 µM ([1]; BCL-xL Rep-2, 0.0195312 uM, read-out: Alpha signal normalised to Maximum/Minimum (inhibition)): 35.3%
Alpha signal normalised to Maximum/Minimum (inhibition) ([1]; BCL-xL Rep-2, 0.078125 uM, 0.078125 µM): 57.5037
inhibition at 0.078125 µM ([1]; BCL-xL Rep-2, 0.078125 uM, read-out: Alpha signal normalised to Maximum/Minimum (inhibition)): 60.5%
Alpha signal normalised to Maximum/Minimum (inhibition) ([1]; BCL-xL Rep-2, 0.3125 uM, 0.3125 µM): 86.3518
inhibition at 0.3125 µM ([1]; BCL-xL Rep-2, 0.3125 uM, read-out: Alpha signal normalised to Maximum/Minimum (inhibition)): 86.5%
Alpha signal normalised to Maximum/Minimum (inhibition) ([1]; BCL-xL Rep-2, 1.25 uM, 1.25 µM): 97.814
inhibition at 1.25 µM ([1]; BCL-xL Rep-2, 1.25 uM, read-out: Alpha signal normalised to Maximum/Minimum (inhibition)): 98.7%
Alpha signal normalised to Maximum/Minimum (inhibition) ([1]; BCL-xL Rep-2, 5 uM, 5 µM): 100.647
inhibition at 5 µM ([1]; BCL-xL Rep-2, 5 uM, read-out: Alpha signal normalised to Maximum/Minimum (inhibition)): 100%
Alpha signal (raw counts) ([1]; BCL-xL Rep-2, plate row B, 5 uM): 20174 and 14292
Alpha signal (raw counts) ([1]; BCL-xL Rep-2, plate row C, 1.25 uM): 40445 and 53326
Alpha signal (raw counts) ([1]; BCL-xL Rep-2, plate row D, 0.3125 uM): 209031 and 211248
Alpha signal (raw counts) ([1]; BCL-xL Rep-2, plate row E, 0.078125 uM): 567789 and 608705
Alpha signal (raw counts) ([1]; BCL-xL Rep-2, plate row F, 0.0195312 uM): 914961 and 1050246
Alpha signal (raw counts) ([1]; BCL-xL Rep-2, plate row G, 0.00488281 uM): 1086158 and 1054354
Alpha signal (raw counts) ([1]; BCL-xL Rep-2, plate row H, 0.0012207 uM): 1178429 and 1231525
Alpha signal (raw counts) ([1]; BCL-xL Rep-2, plate row I, 0.000305176 uM): 1409371 and 1266044
Alpha signal (raw counts) ([1]; BCL-xL Rep-2, plate row K, 1.90735e-5 uM): 1319490 and 1464517
Ki ([1]; BCL-xL, mean of the two replicate values (line without label)): 3.96 nM
Ki ([1]; BCL-xL, second value (line without label below Rep-1, apparently Rep-2)): 2.53 nM
DC50 ([3]; 293T cells, four concentrations, 16 h, Fig. 2b, read-out: BCL-xL DC50): 20.3 nM
Dmax ([3]; HEK-293T): 92%
SMILES: Cc1ncsc1-c1ccc([C@H](C)NC(=O)[C@@H]2C[C@@H](O)CN2C(=O)[C@@H](NC(=O)CCCCCC(=O)N2CCN(CC[C@H](CSc3ccccc3)Nc3ccc(S(=O)(=O)NC(=O)c4ccc(N5CCN(CC6=C(c7ccc(Cl)cc7)CCC(C)(C)C6)CC5)cc4)cc3S(=O)(=O)C(F)(F)F)CC2)C(C)(C)C)cc1 [DT2216]
IC50 ([2]; Homo sapiens, Kasumi 1, 72 h, read-out: IC50, viability of Kasumi-1 cells): 1150 nM
Luminescence (raw plate reading) ([2]; 2um (plate column 11)): 404633 and 365594 and 354853 and 362278
Luminescence (raw plate reading) ([2]; 4um (plate column 12)): 138608 and 119804 and 124492 and 119916
